Test results published in patent US4581354A, “3-arylcarbonyl- and 3-cycloalkylcarbonyl-1-aminoalkyl-1H-indoles, compositions and use” (Sterling Drug Inc., priority 1985, dated 1986).
Counter-ions that a name gives are not always drawn.

test system: acetylcholine-induced abdominal constriction; experiment: animal or person; format: in vivo, mice; settings: Mus musculus, iv, 10 mg./kg. i.v.; read-out: Ach percent inhibition
From the text: The test procedures used to determine the analgesic activities of the compounds have been described in detail in the prior art and are as follows: The acetylcholine-induced abdominal constriction test, which is a primary analgesic screening test designed to measure the ability of a test agent to suppress acetylcholine-induced abdominal constriction in mice, described by Collier et al., Brit. J. Pharmacol. Chemotherap. 32, 295 (1968); a modification of the anti-bradykinin test, which is also a primary analgesic screening procedure, described by Berkowitz et al., J. Pharmacol. Exptl. Therap. 177, 500-508 (1971), Blane et al., J. Pharm. Pharmacol. 19, 367-373 (1967), Botha et al., Eur. J. Pharmacol. 6, 312-321 (1969) and Deffenu et al., J. Pharm. Pharmacol. 18, 135 (1966); and the rat paw flexion test, described by Kuzuna et al., Chem. Pharm. Bull., 23, 1184-1191 (1975), Winter et al., J. Pharm. Exptl. Therap., 211, 678-685 (1979) and Capetola et al., J. Pharm. Exptl. Therap. 214, 16-23 (1980).
Unless noted otherwise, all data were obtained on oral administration and are expressed either as the ED50 or as the percent inhibition at a given dose level (thus 30/100 or 30% inhibition at […].)
In some instances, the compounds were retested two or more times, and ED50 values were calculated for each series of repeat tests. In such instances, each of the ED50 values so-obtained is given in a series of values, thus 6, 28, 30, 43 in the case of the species of Example 1AW in the acetylcholine-induced abdominal constriction test.

SMILES | inhibition in vivo at 10 mg/kg [%]
Cc1c(C(=O)c2cccc3ccccc23)c2ccccc2n1CCN1CCN(C)CC1 [Example 3J] | 30

same assay, conditions: Mus musculus, iv; read-out: Ach ED50

SMILES | ED50 [mg/kg]
Cc1c(C(=O)c2cccc3ccccc23)c2ccccc2n1CCN1CCCC(O)C1 (stereo not shown) [Example 3H] | 9.7

same assay, conditions: Mus musculus, po, 30 mg./kg. oral; read-out: Ach percent inhibition

SMILES | inhibition in vivo at 30 mg/kg [%]
Cc1c(C(=O)c2ccc(CNC(N)=NC#N)cc2)c2ccccc2n1CCN1CCOCC1 [Example 10, 2-methyl-3-(4-cyanoguanidinylmethylbenzoyl)-1-[2-(4-morpholinyl)ethyl]-1H-indole] | 0
Cc1c(C(=O)c2ccc(C=O)cc2)c2ccccc2n1CCN1CCOCC1 [Example 11, 2-methyl-3-(4-formylbenzoyl)-1-[2-(4-morpholinyl)ethyl]-1H-indole] | 20

same assay, conditions: Mus musculus, po, 100 mg./kg. oral; read-out: Ach percent inhibition

SMILES | inhibition in vivo at 100 mg/kg [%]
CCN(CC)CCCCn1c(C)c(C(=O)c2ccc(OC)cc2)c2ccccc21 [Example 3AD] | 100
COc1ccc(C(=O)c2c(C)n(CCCN3CCS(=O)(=O)CC3)c3ccc(F)cc23)cc1 [Example 3AH] | 30
Cc1c(C(=O)c2cccc3ccccc23)c2ccccc2n1CCN1CCNCC1 [Example 3I] | 30
Cc1c(C(=O)c2cccc3ccccc23)c2ccccc2n1CCN1CCOC(C)C1 (stereo not shown) [Example 3M] | 10
COc1ccc(C(=O)c2c(C)n(CCN3CCCC(NC(C)=O)C3)c3ccccc23)cc1 (stereo not shown) [Example 3N, 1-[2-(3-acetylamino-1-piperidinyl)ethyl]-2-methyl-3-(4-methoxybenzoyl)-1H-indole] | 40
COc1ccc(C(=O)c2c(C)n(CCN3CCCCC3CC3CCCCC3)c3ccccc23)cc1 (stereo not shown) [Example 3Q] | 40
COc1ccc(C(=O)c2c(C)n(CCN3CC(C)OC(C)C3)c3ccccc23)cc1 (stereo not shown) [Example 3R] | 40
COc1ccc(C(=O)c2c(C)n(CCN3CCN(C=O)CC3)c3ccccc23)cc1 [Example 3S, 1-[2-(4-formyl-1-piperazinyl)ethyl]-2-methyl-3-(4-methoxybenzoyl)-1H-indole] | 40
COc1ccc(C(=O)c2c(C)n(CCN3CCSCC3)c3ccccc23)cc1 [Example 3U, 2-methyl-3-(4-methoxybenzoyl)-1-[2-(4-thiomorpholinyl)ethyl]-1H-indole] | 30
CCCCNc1ccc(C(=O)c2c(C)n(CCN3CCOCC3)c3ccccc23)cc1 [Example 8B, 2-methyl-3-(4-butylaminobenzoyl)-1-[2-(4-morpholinyl)ethyl]-1H-indole] | 35
Cc1c(C(=NO)c2ccccc2F)c2cc(F)ccc2n1CCCN1CCOCC1 [Example 13B, 5-fluoro-3-(2-fluorobenzoyl)-2-methyl-1-[3-(4-morpholinyl)propyl]-1H-indole oxime] | 0
Cc1c(/C(=N\O)c2ccccc2F)c2ccccc2n1CCN1CCOCC1 [Example 13C, (E)-3-(2-fluorobenzoyl)-2-methyl-1-[2-(4-morpholinyl)ethyl]-1H-indole oxime] | 20
Cc1c(C(=O)c2ccc(-n3cccc3)cc2)c2ccccc2n1CCN1CCOCC1 [Example 14, 2-methyl-3-[4-(1H-pyrrol-1-yl)benzoyl]-1-[2-(4-morpholinyl)ethyl]-1H-indole] | 40
Cc1c(C(=O)c2ccccc2O)c2ccccc2n1CCN1CCOCC1 [Example 16A, 2-methyl-3-(2-hydroxybenzoyl)-1-[2-(4-morpholinyl)ethyl]-1H-indole] | 10
Cc1c(C(=O)c2ccc(O)cc2)c2cc(F)ccc2n1CCCN1CCOCC1 [Example 16B, 5-fluoro-2-methyl-3-(4-hydroxybenzoyl)-1-[3-(4-morpholinyl)propyl]-1H-indole hydrochloride] | 20
COc1ccc(C(=O)c2c(C)n(CCN3CCOCC3)c3cc(O)ccc23)cc1 [Example 18, 6-hydroxy-2-methyl-3-(4-methoxybenzoyl)-1-[2-(4-morpholinyl)ethyl]-1H-indole hydrochloride hydrate (3:4)] | 30
COc1ccc(C(=O)C=Cc2c(C)n(CCN3CCOCC3)c3ccccc23)cc1 [Example 19, 1-{2-methyl-1-[2-(4-morpholinyl)ethyl]-1H-indol-3-yl}-3-(4-methoxyphenyl)propen-3-one monohydrochloride] | 40
Cc1c(C(=O)C=Cc2ccccc2F)c2ccccc2n1CCN1CCOCC1 [Example 20B, 3-(2-fluorocinnamoyl)-2-methyl-1-[2-(4-morpholinyl)ethyl]-1H-indole] | 40

same assay, conditions: Mus musculus, po, 150 mg./kg. oral; read-out: Ach percent inhibition

SMILES | inhibition in vivo at 150 mg/kg [%]
Cc1c(C(=O)c2ccc(NS(C)(=O)=O)cc2)c2ccccc2n1CCN1CCOCC1 [Example 5E] | 38

same assay, conditions: Mus musculus, po, 300 mg./kg. oral; read-out: Ach percent inhibition

SMILES | inhibition in vivo at 300 mg/kg [%]
Cc1c(C(=O)c2ccc(NS(C)(=O)=O)cc2)c2ccccc2n1CCN1CCOCC1 [Example 5E] | 40
Cc1c(C(=O)c2ccc(NC(N)=O)cc2)c2ccccc2n1CCN1CCOCC1 [Example 9, 2-methyl-3-(4-carbamylaminobenzoyl)-1-[2-(4-morpholinyl)ethyl]-1H-indole] | 27

same assay, conditions: Mus musculus, po; read-out: Ach ED50

SMILES | ED50 [mg/kg]
COc1ccc(C(=O)c2c(C)n(CCCCN3CCCCC3)c3ccccc23)cc1 [Example 3AB] | 25
COc1ccc(C(=O)c2c(C)n(CCCCN3CCCC3)c3ccccc23)cc1 [Example 3AC] | 21
COc1ccc(C(=O)c2c(C)n(CCCN3CCSCC3)c3ccc(F)cc23)cc1.Cl [Example 3AF, 5-fluoro-2-methyl-3-(4-methoxybenzoyl)-1-[3-(4-thiomorpholinyl)propyl]-1H-indole hydrochloride] | 139
CCNCCCn1c(C)c(C(=O)c2ccc(OC)cc2)c2cc(F)ccc21 [Example 3AG] | 42
COc1ccc(C(=O)c2c(C)n(CCCN(C)CCO)c3ccc(F)cc23)cc1 [Example 3AJ] | 35
COc1ccc(C(=O)c2c(C)n(CCN3CCN(C)CC3)c3ccccc23)cc1 [Example 3C] | 53
CCNCCn1c(C)c(C(=O)c2ccc(OC)cc2)c2ccccc21 [Example 3K] | 45.7
COCCNCCn1c(C)c(C(=O)c2ccc(OC)cc2)c2ccccc21 [Example 3L] | 44
COc1ccc(C(=O)c2c(C)n(CCN3CCOC(C)C3)c3ccccc23)cc1 (stereo not shown) [Example 3P] | 71
COc1ccc(C(=O)c2c(C)n(CCN3CCCNCC3)c3ccccc23)cc1 [Example 3T] | 53
COc1ccc(C(=O)c2c(C)n(CCN3CCS(=O)(=O)CC3)c3ccccc23)cc1 [Example 3V] | 254
COc1ccc(C(=O)c2c(C)n(CCCN3CCCC(O)C3)c3ccc(F)cc23)cc1 (stereo not shown) [Example 3W] | 49
COc1ccc(C(=O)c2c(C)n(CCCN3CCOC(C)C3)c3ccc(F)cc23)cc1 (stereo not shown) [Example 3Y] | 69
COc1ccc2c(C(=O)c3ccc(N)cc3)c(C)n(CCN3CCOCC3)c2c1 [Example 4C, 2-methyl-3-(4-aminobenzoyl)-6-methoxy-1-[2-(4-morpholinyl)ethyl]-1H-indole] | 37
Cc1c(C(=O)c2ccc(N)cc2)c2ccccc2n1C(C)CN1CCOCC1 (stereo not shown) [Example 4D, 2-methyl-3-(4-aminobenzoyl)-1-[1-methyl-2-(4-morpholinyl)ethyl]-1H-indole] | 24
CCC(=O)Nc1ccc(C(=O)c2c(C)n(CCN3CCOCC3)c3ccccc23)cc1 [Example 5F] | 76
COc1ccc(C(=NO)c2c(C)n(CCN3CCOCC3)c3ccccc23)cc1 [Example 13A, 2-methyl-3-(4-methoxybenzoyl)-1-[2-(4-morpholinyl)ethyl]-1H-indole oxime] | 139
COc1ccc(C(=O)c2c(C)n(CC[N+]3([O-])CCOCC3)c3ccccc23)cc1 [Example 15, 2-methyl-3-(4-methoxybenzoyl)-1-[2-(4-morpholinyl)ethyl]-1H-indole/N(MOR)-oxide] | 155
Cc1ccccc1C=CC(=O)c1c(C)n(CCN2CCOCC2)c2ccccc12 [Example 20A, 3-(2-methylcinnamoyl)-2-methyl-1-[2-(4-morpholinyl)ethyl]-1H-indole] | 128
COc1ccc(C(=O)c2c(C)n(CCN3CCCC(OC(C)=O)C3)c3ccccc23)cc1.O=C(O)/C=C\C(=O)O (stereo not shown) [Example 21, 1-[2-(3-acetoxy-1-piperidinyl)ethyl]-2-methyl-3-(4-methoxybenzoyl)-1H-indole maleate (1:1)] | 31
CCOC(=O)N1CCN(CCn2c(C)c(C(=O)c3ccc(OC)cc3)c3ccccc32)CC1.O=C(O)/C=C\C(=O)O [Example 22, 1-[2-(4-carbethoxy-1-piperazinyl)ethyl]-2-methyl-3-(4-methoxybenzoyl)-1H-indole maleate (1:1)] | 66.8

same assay, conditions: Mus musculus, sc, 30 mg./kg. s.c.; read-out: Ach percent inhibition

SMILES | inhibition in vivo at 30 mg/kg [%]
Cc1c(C(=O)c2ccc(NC(N)=O)cc2)c2ccccc2n1CCN1CCOCC1 [Example 9, 2-methyl-3-(4-carbamylaminobenzoyl)-1-[2-(4-morpholinyl)ethyl]-1H-indole] | 20
Cc1c(C(=O)c2ccc(CNC(N)=NC#N)cc2)c2ccccc2n1CCN1CCOCC1 [Example 10, 2-methyl-3-(4-cyanoguanidinylmethylbenzoyl)-1-[2-(4-morpholinyl)ethyl]-1H-indole] | 7
Cc1c(C(=O)c2ccc(C=O)cc2)c2ccccc2n1CCN1CCOCC1 [Example 11, 2-methyl-3-(4-formylbenzoyl)-1-[2-(4-morpholinyl)ethyl]-1H-indole] | 13
